In patent US9926529B2, “Derivation of neural stem cells and dopaminergic neurons from human pluripotent stem cells” (International Stem Cell Corporation, priority 2012, dated 2018):

Tests used:
hPSC-derived DA neurons = test: Whole cell patch clamp electrophysiology of GS-treated neurons; type: cell-based, human; settings: current clamp, after 90 days of GS treatment
Experimental: Whole cell patch clamp electrophysiology methods. For electrophysiological recordings, the cells were transferred to a recording chamber mounted on an inverted Olympus microscope. During the recordings the temperature was maintained at 31-32° C., and the cells perfused at constant flow of 1 ml/min. with 150 mM NaCl, 4 mM KCl, 1.8 mM CaCl2, 1 mM MgCl2, 10 mM HEPES, 10 mM Glucose at pH 7.30 and 315 mOsm. Whole-cell recordings were obtained using borosilicate electrodes with tip resistance of 2-3 MΩ, filled with 130 mM K-Gluconate, 5 mM NaCl, 5 mM KCl, 10 mM HEPES, 20 mM Sucrose, 0.3 mM EGTA, 3 mM MgATP at pH 7.30 and 290 mOsm. Data were acquired using an HEKA EPC-10 digitizer/amplifier. Once whole-cell access was achieved the resting membrane potential was immediately recorded; the cells were then allowed to equilibrate for 3-5 min. From a resting membrane potential of −70 mV, the cells were then depolarized in current-clamp mode with 200 ms current injections, delivered at 0.2 Hz., and with increasing amplitude from 50 pA to up to 1000 pA to induce action potentials. The presence of inward or outward currents was determined by applying a voltage ramp. Cells with unstable recording configuration or for which the series resistance became larger than 15MΩ were excluded from the study. Twenty different cells were recorded and action potentials were obtained from 7 patch-clamped cells.

[1] = test system: hPSC-NSC derived DA neurons; test: FACS analysis of derived DA neurons stained for TH; type: cell-based, human; settings: after 30 days of differentiation with guggulsterone
Experimental: To obtain DA neurons, hPSC-NSC were first primed into DA precursors with 100 ng/mL FGF8 and 2 μM Purmorphamine for 7 days and then used to screen for small molecules that induce terminal dopaminergic differentiation (FIG. 6A). The DA precursors were plated at 2000 cells/well of a 96-well plate and treated with a small molecule library (Tocris 1120 biologically active compounds) at 2.5 μM for two weeks (FIG. 6A). Dopaminergic differentiation was assessed by neurite outgrowth and ELISA analysis for dopamine release (FIG. 6A). From this screen, guggulsterone (GS), a naturally occurring steroid, was identified among the best inducers of dopaminergic differentiation (FIG. 6A). After 30 days of differentiation, GS-treated neurons appeared mature with elaborate neurite extensions. […] Spontaneous action potentials were recorded in whole cultures of GS-treated neurons using a microelectrode array (MEA) system (FIG. 6J). […]
For flow cytometry analysis, 1 million cells per sample were harvested with Accutase, washed with PBS, and fixed with 4% paraformaldehyde for 30 min at room temperature. […] The samples were run on a Becton Dickinison FACSCalibur™ 4-color flow cytometer and the data was analyzed with CellQuest Pro™ software (v6.0). […]

## C/C=C1\C(=O)C[C@H]2[C@@H]3CCC4=CC(=O)CC[C@]4(C)[C@H]3CC[C@]12C [Guggulsterone]
hPSC-derived DA neurons
  patch-clamped cells in which action potentials were found: 7 out of 20
[1]
  cells gated TH positive (FACS): more than 97%
